From PMC10641818, “Development of First-in-Class Dual Sirt2/HDAC6 Inhibitors as Molecular Tools for Dual Inhibition of Tubulin Deacetylation” (Journal of Medicinal Chemistry, 2023) come the findings set out here.

What all share (format): biochemical
Test [1] has as its target T1, Sirt2 (demyristoylation) (Homo sapiens, UniProt Q8IXJ6).
T1 construct: the respective sirtuin (Sirt1_134–747, Sirt2_56–356, or Sirt3_118–395) was mixed with; made in house; host or cells: Escherichia coli BL21 Star (DE3)
T1 sequence (Q8IXJ6 56-356): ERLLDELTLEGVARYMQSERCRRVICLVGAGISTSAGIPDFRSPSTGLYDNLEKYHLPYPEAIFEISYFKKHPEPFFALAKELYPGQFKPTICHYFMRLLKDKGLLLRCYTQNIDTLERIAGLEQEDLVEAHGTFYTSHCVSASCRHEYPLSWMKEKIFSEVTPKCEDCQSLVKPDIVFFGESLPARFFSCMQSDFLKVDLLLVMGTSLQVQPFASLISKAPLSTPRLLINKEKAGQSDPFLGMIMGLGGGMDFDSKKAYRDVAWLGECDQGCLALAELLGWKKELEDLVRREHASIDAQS
The experiment in a line: Discontinuous Sirt2 demyristoylation assay (ZMML substrate).

Test [2] deals with T2, HDAC6 (Homo sapiens, UniProt Q9UBN7).
T2 sequence (Q9UBN7 1-1215): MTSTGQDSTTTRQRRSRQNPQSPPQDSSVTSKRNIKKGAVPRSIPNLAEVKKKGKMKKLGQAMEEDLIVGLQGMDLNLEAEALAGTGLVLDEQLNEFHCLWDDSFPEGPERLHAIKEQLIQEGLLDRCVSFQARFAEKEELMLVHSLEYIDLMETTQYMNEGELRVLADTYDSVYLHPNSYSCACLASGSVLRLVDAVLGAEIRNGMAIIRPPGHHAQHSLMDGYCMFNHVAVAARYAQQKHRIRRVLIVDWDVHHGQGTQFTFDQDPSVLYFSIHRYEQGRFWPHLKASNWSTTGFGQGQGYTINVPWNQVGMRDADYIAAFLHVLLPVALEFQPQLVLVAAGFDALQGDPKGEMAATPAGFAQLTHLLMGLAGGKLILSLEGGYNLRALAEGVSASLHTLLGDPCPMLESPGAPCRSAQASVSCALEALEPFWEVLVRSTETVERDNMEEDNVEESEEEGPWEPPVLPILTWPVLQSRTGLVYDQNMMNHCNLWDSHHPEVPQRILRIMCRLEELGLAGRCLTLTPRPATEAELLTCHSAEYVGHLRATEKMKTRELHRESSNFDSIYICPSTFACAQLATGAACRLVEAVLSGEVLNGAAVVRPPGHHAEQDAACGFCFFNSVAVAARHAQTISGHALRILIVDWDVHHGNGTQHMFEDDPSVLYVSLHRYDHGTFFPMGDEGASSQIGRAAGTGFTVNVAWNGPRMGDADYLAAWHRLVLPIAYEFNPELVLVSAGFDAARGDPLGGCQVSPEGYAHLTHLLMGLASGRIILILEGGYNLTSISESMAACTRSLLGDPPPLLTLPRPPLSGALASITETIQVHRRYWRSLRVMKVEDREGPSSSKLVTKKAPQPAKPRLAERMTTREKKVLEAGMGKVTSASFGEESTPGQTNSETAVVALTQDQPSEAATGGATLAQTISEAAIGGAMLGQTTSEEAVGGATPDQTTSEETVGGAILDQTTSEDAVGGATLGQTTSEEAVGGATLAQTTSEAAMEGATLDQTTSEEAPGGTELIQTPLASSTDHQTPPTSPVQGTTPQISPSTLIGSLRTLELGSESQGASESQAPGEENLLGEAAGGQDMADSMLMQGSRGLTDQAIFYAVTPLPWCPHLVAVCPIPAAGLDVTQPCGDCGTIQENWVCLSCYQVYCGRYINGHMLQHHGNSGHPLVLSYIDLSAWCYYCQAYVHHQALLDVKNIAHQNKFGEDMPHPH
The experiment in a line: HDAC6 in vitro deacetylation assay (ZMAL). Set-up: purchased BPS Bioscience 50006. The conditions noted are these: deacetylation, mean ± SD.

For test [3], the target named is T3, HDAC1 (Homo sapiens, UniProt Q13547).
T3 construct: purchased BPS Bioscience 50051
The experiment in a line: HDAC1 in vitro deacetylation assay (ZMAL). The note with it: deacetylation, mean ± SD.

Where only a bound is given, the exact number is not on record here.

T3 sequence (Q13547 whole entry): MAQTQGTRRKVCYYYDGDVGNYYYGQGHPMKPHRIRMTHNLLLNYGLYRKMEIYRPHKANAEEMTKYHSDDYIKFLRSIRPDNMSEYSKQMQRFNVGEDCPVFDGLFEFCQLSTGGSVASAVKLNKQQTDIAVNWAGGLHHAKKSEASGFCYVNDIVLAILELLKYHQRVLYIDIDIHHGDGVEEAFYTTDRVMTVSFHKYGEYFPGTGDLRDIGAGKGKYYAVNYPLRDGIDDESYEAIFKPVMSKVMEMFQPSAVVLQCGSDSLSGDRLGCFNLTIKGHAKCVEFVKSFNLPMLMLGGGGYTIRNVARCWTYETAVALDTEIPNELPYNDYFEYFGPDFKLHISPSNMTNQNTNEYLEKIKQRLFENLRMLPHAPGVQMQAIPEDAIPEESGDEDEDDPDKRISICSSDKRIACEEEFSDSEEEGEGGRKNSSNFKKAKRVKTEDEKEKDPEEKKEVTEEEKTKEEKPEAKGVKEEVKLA

Consider `Cc1cc(C)nc(SCC(=O)Nc2ncc(Cc3cccc(C(=O)NO)c3)s2)n1` [Compound 21, 3-((2-(2-((4,6-Dimethylpyrimidin-2-yl)thio)acetamido)thiazol-5-yl)methyl)-N-hydroxybenzamide], for which, in test [1], the inhibition at 20 µM is less than 15%.

As to `CC(=O)NCc1ccc(C(=O)NO)cc1` [Compound 55, 4-(Acetamidomethyl)-N-hydroxybenzamide], the IC50 was determined as 650 ± 40 nM in test [2] and 17000 ± 1000 nM in test [3]. Besides, in test [1], the inhibition at 20 µM was less than 15%.

`O=C(NO)c1ccc(CNC(=O)c2ccccc2)cc1` [Compound 56, 4-(Benzamidomethyl)-N-hydroxybenzamide]: the half-inhibitory concentration (IC50) in test [2] turned out to be 18 ± 1 nM; in test [3] it was 810 ± 50 nM. Also, the inhibition at 20 µM in test [1] is less than 15%.

With `O=C(CCCCCCC(=O)Nc1ccccc1)NO` [SAHA, suberoylanilide hydroxamic acid, reference compound], the “Sirt2 (demyristoylation) percentual inhibition” value in test [1] (@ 10 μM) stood at 18% @ 10 μM.
